Values of other authors as cited in publication PMC6906348 (Therapeutic Advances in Medical Oncology, 2019).

Experiments:
MET = settings: cited from earlier work
[1] = system: MET-dependent tumor models; settings: at well tolerated doses; cited from earlier work

CNC(=O)c1ccc(-c2cnc3ncc(Cc4ccc5ncccc5c4)n3n2)cc1F [capmatinib]
MET inhibition (MET): highly potent and selective | effect on MET-dependent tumor models [1]: causes regression
